The NIST ThermoML archive (doi:10.1021/je050288d)

Conditions: Gas

O [water]
Conditions | viscosity [mPa·s]
297.39 K, Mass density=0.0402 kg/m3 | 0.009665
297.88 K, Mass density=0.0668 kg/m3 | 0.009654
298.02 K, Mass density=0.0247 kg/m3 | 0.009675
298.08 K, Mass density=0.0368 kg/m3 | 0.009683
298.17 K, Mass density=0.1654 kg/m3 | 0.009693
298.3 K, Mass density=0.0186 kg/m3 | 0.0097
298.38 K, Mass density=0.1081 kg/m3 | 0.009686
298.57 K, Mass density=0.1973 kg/m3 | 0.009684
299.06 K, Mass density=0.0793 kg/m3 | 0.009709
300.07 K, Mass density=0.2351 kg/m3 | 0.009725
310.8 K, Mass density=0.0186 kg/m3 | 0.01013
310.87 K, Mass density=0.0368 kg/m3 | 0.01013
310.96 K, Mass density=0.0668 kg/m3 | 0.01011
311.24 K, Mass density=0.1654 kg/m3 | 0.01014
311.3 K, Mass density=0.0793 kg/m3 | 0.01013
311.39 K, Mass density=0.1081 kg/m3 | 0.01013
311.45 K, Mass density=0.0402 kg/m3 | 0.01015
311.77 K, Mass density=0.0247 kg/m3 | 0.01015
312.25 K, Mass density=0.2351 kg/m3 | 0.01014
313.01 K, Mass density=0.1973 kg/m3 | 0.01017
324.45 K, Mass density=0.0668 kg/m3 | 0.01059
324.54 K, Mass density=0.0247 kg/m3 | 0.0106
324.54 K, Mass density=0.1654 kg/m3 | 0.0106
324.74 K, Mass density=0.2351 kg/m3 | 0.01058
325 K, Mass density=0.0402 kg/m3 | 0.01062
325.15 K, Mass density=0.1973 kg/m3 | 0.01059
325.42 K, Mass density=0.1081 kg/m3 | 0.01062
325.96 K, Mass density=0.0368 kg/m3 | 0.01065
331.18 K, Mass density=0.0186 kg/m3 | 0.01083
331.47 K, Mass density=0.0793 kg/m3 | 0.01084
338.02 K, Mass density=0.1973 kg/m3 | 0.01103
338.38 K, Mass density=0.2351 kg/m3 | 0.01105
338.47 K, Mass density=0.0247 kg/m3 | 0.01108
338.71 K, Mass density=0.0368 kg/m3 | 0.0111
338.79 K, Mass density=0.0793 kg/m3 | 0.01108
338.83 K, Mass density=0.0186 kg/m3 | 0.01111
339.39 K, Mass density=0.0402 kg/m3 | 0.01112
340.17 K, Mass density=0.1081 kg/m3 | 0.01113
341.28 K, Mass density=0.0668 kg/m3 | 0.01117
352.03 K, Mass density=0.1973 kg/m3 | 0.01153
352.05 K, Mass density=0.1654 kg/m3 | 0.01154
352.17 K, Mass density=0.0668 kg/m3 | 0.01156
352.37 K, Mass density=0.2351 kg/m3 | 0.01154
352.75 K, Mass density=0.0186 kg/m3 | 0.0116
352.77 K, Mass density=0.0402 kg/m3 | 0.0116
352.79 K, Mass density=0.0793 kg/m3 | 0.01159
352.91 K, Mass density=0.0247 kg/m3 | 0.0116
353.16 K, Mass density=0.1081 kg/m3 | 0.0116
353.6 K, Mass density=0.0368 kg/m3 | 0.01163
365.86 K, Mass density=0.2351 kg/m3 | 0.01203
366.29 K, Mass density=0.1973 kg/m3 | 0.01205
366.37 K, Mass density=0.0247 kg/m3 | 0.01209
366.48 K, Mass density=0.1654 kg/m3 | 0.01207
366.77 K, Mass density=0.1081 kg/m3 | 0.01209
366.96 K, Mass density=0.0793 kg/m3 | 0.01211
367.03 K, Mass density=0.0402 kg/m3 | 0.01212
367.1 K, Mass density=0.0668 kg/m3 | 0.0121
367.84 K, Mass density=0.0186 kg/m3 | 0.01216
368.22 K, Mass density=0.0368 kg/m3 | 0.01216
380.42 K, Mass density=0.0247 kg/m3 | 0.0126
380.43 K, Mass density=0.1973 kg/m3 | 0.01257
380.59 K, Mass density=0.0668 kg/m3 | 0.01259
380.6 K, Mass density=0.1654 kg/m3 | 0.01258
380.8 K, Mass density=0.0186 kg/m3 | 0.01263
381.09 K, Mass density=0.0402 kg/m3 | 0.01263
381.09 K, Mass density=0.0793 kg/m3 | 0.01263
381.33 K, Mass density=0.1081 kg/m3 | 0.01263
381.7 K, Mass density=0.2351 kg/m3 | 0.01262
382.14 K, Mass density=0.0368 kg/m3 | 0.01268
393.95 K, Mass density=0.1654 kg/m3 | 0.01309
394.29 K, Mass density=0.0668 kg/m3 | 0.0131
394.39 K, Mass density=0.0186 kg/m3 | 0.01314
394.43 K, Mass density=0.1973 kg/m3 | 0.0131
394.48 K, Mass density=0.2351 kg/m3 | 0.01311
394.72 K, Mass density=0.0247 kg/m3 | 0.01313
395 K, Mass density=0.1081 kg/m3 | 0.01314
395.38 K, Mass density=0.0402 kg/m3 | 0.01316
395.87 K, Mass density=0.0793 kg/m3 | 0.01319
396.61 K, Mass density=0.0368 kg/m3 | 0.01322
408.3 K, Mass density=0.1654 kg/m3 | 0.01365
408.32 K, Mass density=0.0668 kg/m3 | 0.01364
408.34 K, Mass density=0.2351 kg/m3 | 0.01365
408.76 K, Mass density=0.1973 kg/m3 | 0.01366
408.87 K, Mass density=0.0186 kg/m3 | 0.01369
409.37 K, Mass density=0.1081 kg/m3 | 0.01369
409.39 K, Mass density=0.0793 kg/m3 | 0.0137
409.46 K, Mass density=0.0402 kg/m3 | 0.01369
409.76 K, Mass density=0.0247 kg/m3 | 0.01371
411.18 K, Mass density=0.0368 kg/m3 | 0.01379
422.56 K, Mass density=0.2351 kg/m3 | 0.01421
422.69 K, Mass density=0.1654 kg/m3 | 0.01422
422.72 K, Mass density=0.0668 kg/m3 | 0.0142
422.75 K, Mass density=0.0247 kg/m3 | 0.01422
422.94 K, Mass density=0.1973 kg/m3 | 0.01422
423.26 K, Mass density=0.0186 kg/m3 | 0.01424
423.44 K, Mass density=0.0793 kg/m3 | 0.01425
423.62 K, Mass density=0.1081 kg/m3 | 0.01425
423.7 K, Mass density=0.0402 kg/m3 | 0.01426
423.8 K, Mass density=0.0368 kg/m3 | 0.01428
437.27 K, Mass density=0.2351 kg/m3 | 0.01482
437.71 K, Mass density=0.1654 kg/m3 | 0.01483
437.84 K, Mass density=0.1973 kg/m3 | 0.01484
438.04 K, Mass density=0.0668 kg/m3 | 0.01481
438.05 K, Mass density=0.1081 kg/m3 | 0.01483
438.48 K, Mass density=0.0368 kg/m3 | 0.01487
438.71 K, Mass density=0.0793 kg/m3 | 0.01486
438.77 K, Mass density=0.0186 kg/m3 | 0.01485
438.99 K, Mass density=0.0402 kg/m3 | 0.01486
440.41 K, Mass density=0.0247 kg/m3 | 0.01492
